The target in this assay is PD-1/PD-L1 (Homo sapiens, UniProt Q9NZQ7). Kind of assay: TR-FRET PD-1/PD-L1 binding inhibition at the molecular level (free proteins). Conditions: Tag1-PD-L1 and Tag2-PD-1 proteins, twelve concentrations from 200 nM, 2 hours at room temperature, read-out: FRET assay (IC50). The method in brief: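 HTRF read-out at 665/620 nm after 2 h at room temperature. Detection used anti-Tag1 Eu cryptate plus anti-Tag2 XL665 antibodies. Tagged PD-L1 and PD-1 proteins were pre-mixed with compound across twelve […] 1:2 dilutions starting at 200 nM.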

Experimental findings from EP4755888A1 (ILAb Co., Ltd., priority 2023, dated 2025) are described below.

Broadly, the IC50 is the concentration that inhibits the measured activity by half.

Sequence of PD-1/PD-L1 (Q9NZQ7 19-238 limits assumed): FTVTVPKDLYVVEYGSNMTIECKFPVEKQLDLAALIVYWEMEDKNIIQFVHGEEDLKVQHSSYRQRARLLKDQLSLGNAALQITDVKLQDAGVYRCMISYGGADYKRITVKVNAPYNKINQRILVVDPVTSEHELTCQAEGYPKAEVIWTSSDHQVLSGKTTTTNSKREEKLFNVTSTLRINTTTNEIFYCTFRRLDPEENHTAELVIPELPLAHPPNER

In the case of `Cc1c(NC(=O)c2cc3n(n2)CCCC3N2CC[C@@H](O)C2)cccc1-c1cccc(-c2nc3c(s2)CCN(C)C3)c1C` (stereo partly drawn) [Compound 154, N-(2,2'-dimethyl-3'-(5-methyl-4,5,6,7-tetrahydrothiazolo[4,5-c]pyridin-2-yl)-[1,1'-biphenyl]-3-yl)-4-((R)-3-hydroxypyrrolidin-1-yl)-4,5,6,7-tetrahydropyrazolo[1,5-a]pyridine-2-carboxamide], the IC50 lay in the range of 10 to 100 nM.
The same measure for `Cc1c(-c2cc3n(n2)CCCC3N2CCC(O)C2)cccc1-c1cccc(-c2cc3n(n2)CCCC3N2CCC(O)C2)c1C` [Compound 156, (3R,3'R)-1,1'-(2,2'-(2,2'-dimethyl-[1,1'-biphenyl]-3,3'-diyl)bis(4,5,6,7-tetrahydropyrazolo[1,5-a]pyridine-4,2-diyl))bis(pyrrolidin-3-ol)]: 100 to 1000 nM; for `Cc1c(-c2cc3n(n2)CCCC3NCCO)cccc1-c1cccc(-c2cc3n(n2)CCCC3N2CC[C@@H](O)C2)c1C` (stereo partly drawn) [Compound 157, (3R)-1-(2-(3'-(4-((2-hydroxyethyl)amino)-4,5,6,7-tetrahydropyrazolo[1,5-a]pyridin-2-yl)-2,2'-dimethyl-[1,1'-biphenyl]-3-yl)-4,5,6,7-tetrahydropyrazolo[1,5-a]pyridin-4-yl)pyrrolidin-3-ol]: over 1000 nM; for `Cc1c(NC(=O)c2cc3n(n2)CCCC3NCCO)cccc1-c1cccc(-c2cc3n(n2)CCCC3NCCO)c1C` (stereo not drawn) [Compound 158, 4-((2-hydroxyethyl)amino)-N-(3'-(4-((2-hydroxyethyl)amino)-4,5,6,7-tetrahydropyrazolo[1,5-a]pyridin-2-yl)-2,2'-dimethyl-[1,1'-biphenyl]-3-yl)-4,5,6,7-tetrahydropyrazolo[1,5-a]pyridine-2-carboxamide]: 10 to 100 nM.
Turning to `Cc1c(NC(=O)c2cc3n(n2)CCCC3NCCO)cccc1-c1cccc(-c2cc3n(n2)CCCC3N2CC[C@@H](O)C2)c1C` (stereo partly drawn) [Compound 159, 4-((2-hydroxyethyl)amino)-N-(3'-(4-((R)-3-hydroxypyrrolidin-1-yl)-4,5,6,7-tetrahydropyrazolo[1,5-a]pyridin-2-yl)-2,2'-dimethyl-[1,1'-biphenyl]-3-yl)-4,5,6,7-tetrahydropyrazolo[1,5-a]pyridine-2-carboxamide], the IC50 lay in the range of 10 to 100 nM.
As to `Cc1c(NC(=O)c2cc3n(n2)CCCC3N2CC[C@@H](O)C2)cccc1-c1cccc(-c2cc3n(n2)CCCC3NCCO)c1C` (stereo partly drawn) [Compound 160, N-(3'-(4-((2-hydroxyethyl)amino)-4,5,6,7-tetrahydropyrazolo[1,5-a]pyridin-2-yl)-2,2'-dimethyl-[1,1'-biphenyl]-3-yl)-4-((R)-3-hydroxypyrrolidin-1-yl)-4,5,6,7-tetrahydropyrazolo[1,5-a]pyridine-2-carboxamide], the IC50 is 10 to 100 nM.
The same measure for `Cc1c(NC(=O)c2cc3n(n2)CCCC3N2CC[C@@H](O)C2)cccc1-c1cccc(-c2cc3n(n2)CCCC3N2CC[C@@H](O)C2)c1C` (stereo partly drawn) [Compound 161, 4-((R)-3-hydroxypyrrolidin-1-yl)-N-(3'-(4-((R)-3-hydroxypyrrolidin-1-yl)-4,5,6,7-tetrahydropyrazolo[1,5-a]pyridin-2-yl)-2,2'-dimethyl-[1,1'-biphenyl]-3-yl)-4,5,6,7-tetrahydropyrazolo[1,5-a]pyridine-2-carboxamide]: 10 to 100 nM; for `COc1nc(-c2cccc(-c3cccc(-c4cc5n(n4)CCCC5NCCO)c3C)c2C)cnc1CNC[C@@H]1CCC(=O)N1` (stereo partly drawn) [Compound 162, (5S)-5-((((5-(3'-(4-((2-hydroxyethyl)amino)-4,5,6,7-tetrahydropyrazolo[1,5-a]pyridin-2-yl)-2,2'-dimethyl-[1,1'-biphenyl]-3-yl)-3-methoxypyrazin-2-yl)methyl)amino)methyl)pyrrolidin-2-one]: 10 to 100 nM; for `COc1nc(-c2cccc(-c3cccc(-c4cc5n(n4)CCCC5NCC(=O)O)c3C)c2C)cnc1CNC[C@@H]1CCC(=O)N1` (stereo partly drawn) [Compound 163, 2-((2-(3'-(6-methoxy-5-(((((S)-5-oxopyrrolidin-2-yl)methyl)amino)methyl)pyrazin-2-yl)-2,2'-dimethyl-[1,1'-biphenyl]-3-yl)-4,5,6,7-tetrahydropyrazolo[1,5-a]pyridin-4-yl)amino)acetic acid]: 10 to 100 nM.
As for `COc1nc(-c2cccc(-c3cccc(-c4cc5n(n4)CCCC5N4CC[C@@H](O)C4)c3C)c2C)cnc1CNC[C@@H]1CCC(=O)N1` (stereo partly drawn) [Compound 164, (5S)-5-((((5-(3'-(4-((R)-3-hydroxypyrrolidin-1-yl)-4,5,6,7-tetrahydropyrazolo[1,5-a]pyridin-2-yl)-2,2'-dimethyl-[1,1'-biphenyl]-3-yl)-3-methoxypyrazin-2-yl)methyl)amino)methyl)pyrrolidin-2-one], the IC50 lay in the range of 10 to 100 nM.
As for `COc1nc(-c2cccc(-c3cccc(-c4cc5n(n4)CCCC5N4CC[C@@H](C(=O)O)C4)c3C)c2C)cnc1CNC[C@@H]1CCC(=O)N1` (stereo partly drawn) [Compound 165, (3R)-1-(2-(3'-(6-methoxy-5-(((((S)-5-oxopyrrolidin-2-yl)methyl)amino)methyl)pyrazin-2-yl)-2,2'-dimethyl-[1,1'-biphenyl]-3-yl)-4,5,6,7-tetrahydropyrazolo[1,5-a]pyridin-4-yl)pyrrolidine-3-carboxylic acid], the half-maximal inhibitory concentration (IC50) was under 10 nM.
Under `COc1nc(-c2cccc(-c3cccc(-c4cc5n(n4)CCCC5N4CCC(O)CC4)c3C)c2C)cnc1CNC[C@@H]1CCC(=O)N1` (stereo partly drawn) [Compound 166, (5S)-5-((((5-(3'-(4-(4-hydroxypiperidin-1-yl)-4,5,6,7-tetrahydropyrazolo[1,5-a]pyridin-2-yl)-2,2'-dimethyl-[1,1'-biphenyl]-3-yl)-3-methoxypyrazin-2-yl)methyl)amino)methyl)pyrrolidin-2-one] stands 10 to 100 nM.
Consider `COc1nc(-c2cccc(-c3cccc(-c4cc5n(n4)CCCC5N4CCC(C(=O)O)CC4)c3C)c2C)cnc1CNC[C@@H]1CCC(=O)N1` (stereo partly drawn) [Compound 167, 1-(2-(3'-(6-methoxy-5-(((((S)-5-oxopyrrolidin-2-yl)methyl)amino)methyl)pyrazin-2-yl)-2,2'-dimethyl-[1,1'-biphenyl]-3-yl)-4,5,6,7-tetrahydropyrazolo[1,5-a]pyridin-4-yl)piperidine-4-carboxylic acid], for which the half-maximal inhibitory concentration (IC50) fell in the range of 10 to 100 nM.
The same measure for `COc1nc(-c2cccc(-c3cccc(-c4cc5n(n4)CCCC5NCCO)c3Cl)c2Cl)cnc1CNC[C@@H]1CCC(=O)N1` (stereo partly drawn) [Compound 168, (5S)-5-((((5-(2,2'-dichloro-3'-(4-((2-hydroxyethyl)amino)-4,5,6,7-tetrahydropyrazolo[1,5-a]pyridin-2-yl)-[1,1'-biphenyl]-3-yl)-3-methoxypyrazin-2-yl)methyl)amino)methyl)pyrrolidin-2-one]: under 10 nM.
Under `COc1nc(-c2cccc(-c3cccc(-c4cc5n(n4)CCCC5NCC(=O)O)c3Cl)c2Cl)cnc1CNC[C@@H]1CCC(=O)N1` (stereo partly drawn) [Compound 169, 2-((2-(2,2'-dichloro-3'-(6-methoxy-5-(((((S)-5-oxopyrrolidin-2-yl)methyl)amino)methyl)pyrazin-2-yl)-[1,1'-biphenyl]-3-yl)-4,5,6,7-tetrahydropyrazolo[1,5-a]pyridin-4-yl)amino)acetic acid] stands under 10 nM.
